{"source": "patent US20220098237A1", "about": "“COMPOUND, SYNTHESIS INTERMEDIATE, USE, PHARMACEUTICAL COMPOSITION AND NEUROMODULATORY THERAPEUTIC METHOD” (Remer Consultores Assessoria Empresarial Ltda, priority 2017, published 2022)", "molecules": {"B1": {"name": "tetrapeptide SEQ ID No. 1 (peptide)", "peptide": "NFKF", "notes": "Synthetic peptide; for the radioligand assays it was a 10 mM stock solution in DMSO"}}, "key": {"pilocarpine model": {"system": "pilocarpine model", "assay": "Pilocarpine model, oral pre-treatment (salivation, first signal, seizure, death/survival)", "type": "in vivo, Mus musculus", "set-up": "time of occurrence of the first seizure: unit not given here", "method": "In some examples, the neuromodulatory/neuroprotective/anticonvulsive effects of the composition of the invention have been evaluated in vivo by oral administration to animals. The pharmaceutical composition of the invention was administered to mammals (Mus musculus or mouse) with an oral dose of treatment with different embodiments of the compound of the invention, compared to other compounds or to saline control. In these experiments, the test compounds were administered orally 10 minutes prior to (intraperitoneal) administration of pilocarpine. Pilocarpine hydrochloride (320 mg/kg, Merck), dissolved in 0.9% sterile saline, was given intraperitoneally for induction of SE (status epileticus) (Turski et al., 1983). In the Turski model, the neurotoxic effects begin about 15-25 minutes after the injection of Pilo, with the occurrence of motor and limbic seizures, the animals evolving to a state of continuous (clonic) seizures that characterize SE Sanabria and Cavalheiro, 2000).\nIn this embodiment, the anticonvulsive effect of the composition of the invention prepared according to Example 2 was evaluated by prior administration of the inventive composition and subsequent administration of pilocarpine to animals. FIG. 4 presents the results of the pilocarpine model, indicating the time for the first salivation with the administration of control, cannabidiol (30 mg/kg), the compound of the invention R1-N-AA1-K-AA2-R2, in which embodiment is the tetrapeptide of SEQ ID No. 1 (500 μg/kg).\nIn this embodiment, the neuromodulatory effect of the composition of the invention prepared according to Example 2 was evaluated by prior administration of the inventive composition and subsequent administration of pilocarpine to animals. Other test compounds were also evaluated as described below. Administration of pilocarpine leads to severe brain injury, neurotoxicity and usually culminates in the death of the animals. This substance was used in the experiments described below but its harmful neuronal/encephalic effects were inhibited by the prior administration of the composition of the present invention: the vast majority of the animals subjected to these experiments had no symptoms related to brain lesions and survived without apparent damage, in contrast to groups of animals treated with other known substances.\nThe composition of the invention was prepared according to Example 2 with due concentration correction, for comparison of the effects of SEQ ID No. 1, SEQ ID No. 7 and NFK, such compounds having been previously administered to the animal groups.\nIn this embodiment, the anticonvulsant effect of different embodiments of the compound of the invention with the structure represented by SEQ ID No. 1, SEQ ID No. 7, NFK, FKF, FKL, as well as the NF, FK, KF and KL dipeptides were evaluated in the pilocarpine model."}, "human CB1 receptor": {"target": "T1, human CB1 receptor (Homo sapiens, UniProt P21554)", "T1 construct": "expressed in transfected cells; host or cells: CHO cells", "T1 sequence (P21554 whole entry)": "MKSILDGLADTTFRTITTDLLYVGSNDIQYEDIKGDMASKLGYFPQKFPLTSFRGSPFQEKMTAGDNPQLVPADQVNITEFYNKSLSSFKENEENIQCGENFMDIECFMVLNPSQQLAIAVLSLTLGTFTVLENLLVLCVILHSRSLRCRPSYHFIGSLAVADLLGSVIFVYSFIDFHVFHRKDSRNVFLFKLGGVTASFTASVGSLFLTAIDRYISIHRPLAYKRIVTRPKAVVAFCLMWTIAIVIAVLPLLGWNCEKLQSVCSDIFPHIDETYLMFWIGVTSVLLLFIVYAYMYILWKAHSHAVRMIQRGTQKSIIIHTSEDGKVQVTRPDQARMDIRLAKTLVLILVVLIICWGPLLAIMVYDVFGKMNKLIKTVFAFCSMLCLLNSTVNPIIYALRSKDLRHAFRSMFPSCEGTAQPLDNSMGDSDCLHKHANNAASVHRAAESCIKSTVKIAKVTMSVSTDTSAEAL", "assay": "In vitro radioligand binding, [3H] CP 55940, recombinant CHO cells", "method": "In vitro binding assays were performed using recombinant CHO cells expressing the human CB1 receptor and the [3H]\nResults are expressed as the percentage of binding of the specific control according to formula: […]\nAnd the percentual inhibition of binding of specific control obtained in the presence of the compound of the invention is:\nIC50 values (concentration that causes half of maximal inhibition of specific control binding) and Hill (nH) coefficients were determined by nonlinear regression of the competition curves generated with the mean values of the replicates using the Hill equation:\nWhere Y=specific binding, A=asymptotic left of curve, D=asymptotic right of curve, C=compound concentration, C50=IC50 and nH=curve coefficient/slope factor. This analysis was performed using the Hill software validated by comparison with data generated by Sigmaplot 4.0 software. Inhibition constants (Ki) were calculated using the equation of Chen Prusoff:\nWhere L=concentration of the radioligand in the assay; KD=affinity of the radioligand for the receptor. A graph is used to determine the KD."}, "human CB2 receptor": {"target": "T2, human CB2 receptor (Homo sapiens, UniProt P34972)", "T2 construct": "expressed in transfected cells; host or cells: CHO cells", "T2 sequence (P34972 whole entry)": "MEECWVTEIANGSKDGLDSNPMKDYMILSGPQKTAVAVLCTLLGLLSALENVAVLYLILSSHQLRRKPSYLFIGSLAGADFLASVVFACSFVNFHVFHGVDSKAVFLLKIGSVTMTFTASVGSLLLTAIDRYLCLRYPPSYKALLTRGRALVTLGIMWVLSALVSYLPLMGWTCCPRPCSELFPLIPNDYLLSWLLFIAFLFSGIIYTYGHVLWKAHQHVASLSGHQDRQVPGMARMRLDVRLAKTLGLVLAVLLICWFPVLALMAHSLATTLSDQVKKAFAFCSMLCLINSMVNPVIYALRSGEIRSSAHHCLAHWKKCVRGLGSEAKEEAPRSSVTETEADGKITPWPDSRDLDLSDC", "assay": "In vitro radioligand binding, [3H] WIN55212-2, recombinant CHO cells", "set-up": "% of inhibition of binding of specific control, 1st/2nd measurement: unit of the concentration uncertain", "conditions": "for % of inhibition of binding of specific control, 1st/2nd measurement: radioligand agonist WIN 55212-2", "method": "(§1) In vitro binding assays were performed using recombinant CHO cells expressing human CB2 receptor and [3H]"}, "[1]": {"assay": "Stability tests under extreme conditions (freezing 24 hours; heating at 100° C. for 10 minutes), HPLC", "type": "physicochemical", "conditions": "for area of the HPLC peak, control: control sample, n=2; for area of the HPLC peak after freezing / part lost or degraded by freezing: freezing for 24 h", "description": "In the vertical axis the area of the HPLC peak is shown. […] Statistical significance data are also shown, the asterisks indicating: (*) P<0.05 vs Control (***) P<0.005 vs Control; (****) P<0.0001 vs Control."}, "pain threshold": {"system": "pain threshold", "assay": "Pain threshold model, pressure apparatus on right paw", "type": "in vivo, rats", "conditions": "for pain threshold, force: oral, 0.5 to 0.25 mg/kg, individual animals", "method": "The compounds of the present invention have also been tested as analgesics or neuropathic pain modulators. To that end, the compounds PVNFKF, PVNFK, VNFKF, SEQ ID No. 1 were tested in the pain threshold model. The pain threshold was measured using a pressure apparatus (Ugo Basile, Italy), essentially as described (Randall and Selitto, 1957). Briefly, a force of increasing magnitude (16 g/s) was applied to the back of the right paw of rats. When animals react by kicking, the force in grams required to induce this response is the threshold of pain. Antinoniceptive activity was expressed as the increase in pain threshold compared to control animals.\nThe compounds of the invention were administered orally to the animals at doses of 0.5 to 0.25 mg/kg and saline was used as a control."}, "CB1 receptor": {"system": "CB1 receptor", "assay": "Screening with anti-CB1 antibodies sensitive to activation/conformational changes, ELISA on Striatum membranes", "type": "binding", "conditions": "ligands 1 μM, Assay 1-5", "method": "Antibodies sensitive to CB1 receptor activation were generated and characterized by their specificities. For screening compounds, Striatum membranes (5 μg per well) were plated on NUNC-Immuno 96-well plates (Nalge-Nunc) and dried at room temperature. Membranes were washed with PBS (phosphate buffered saline) and incubated with or without different ligands (1 μM) and the extent of receptor recognition by the antibodies was measured by ELISA. The results of the tests are shown in Table 5, which indicates the % binding to the CB1 receptor in relation to control: […]"}, "[2]": {"system": "experimental autoimmune encephalomyelitis (EAE)", "assay": "EAE model of Multiple Sclerosis, MOG induction, Endopeptidase 24.15 knockout mice", "type": "in vivo", "conditions": "24.15 knock out mice, FIG. 25", "description": "In this embodiment, transgenic mice knockout of the Endopeptidase 24.15 gene were challenged with MOG (Myelin Oligodendrocyte Glycoprotein), with administration of the compound of the invention SEQ ID No. 1 or saline as a control. After the introduction of the disease, a daily evaluation of the symptoms was made, according to Table 11 below."}, "[3]": {"target": "T3, recombinant human CB2 cannabinoid receptor (human, UniProt P34972 1-360)", "T3 construct": "whole, on cells; also called human CB2 receptor", "T3 sequence (P34972 whole entry)": "as above", "assay": "[3H]WIN 55212-2 radioligand displacement on CHO cells expressing human CB2", "method": "as §1"}, "[4]": {"conditions": "FIG. 6, 500 μg/kg before pilocarpine"}, "[5]": {"conditions": "heating at 100° C. for 10 minutes"}}, "note": "Where “and” joins values, the source holds several entries; their conditions need not be identical. Equal entries are not always repeated. Entries after “also recorded” stand apart in the source; their conditions may differ. Peptide text beside a SMILES is read from it.", "data": [{"molecule": "NCCCCC(NC(=O)C(Cc1ccccc1)NC(=O)C(N)CC(N)=O)C(=O)NC(Cc1ccccc1)C(=O)O", "note": "(centres unmarked) [SEQ ID No. 1] (H-NFKF-OH; configuration not given here)", "values": [{"measurement": "time for first salivation vs control (significance)", "setting": "pilocarpine model; FIG. 4, cannabidiol 30 mg/kg, SEQ ID No. 1 500 μg/kg", "value": "does not present statistical significance"}, {"measurement": "number of animals that died", "setting": "pilocarpine model; [4]", "value": "two"}, {"measurement": "remaining animals alive for more than a week", "setting": "pilocarpine model; [4]", "value": 3, "unit": "animals"}, {"measurement": "prostration and nasal bleeding", "setting": "pilocarpine model; SEQ ID No. 1 500 μg/kg, cannabidiol 30 mg/kg", "value": "no occurrence of prostration or nasal bleeding; also recorded: non-occurrence of prostration or nasal bleeding"}, {"measurement": "time of occurrence of the first salivation", "setting": "pilocarpine model; Table 1, oral, 10 minutes prior to pilocarpine 320 mg/kg i.p., individual animals", "value": "3.2 min and 1.83 min and 1.97 min and 2.73 min and 1.58 min"}, {"measurement": "time of occurrence of the first signal", "setting": "pilocarpine model; Table 2, oral, 10 minutes prior to pilocarpine 320 mg/kg i.p., individual animals", "value": "12.33 min and 8.43 min and 10.23 min and 13.53 min and 9.9 min"}, {"measurement": "time of occurrence of the first seizure", "setting": "pilocarpine model; Table 3, oral, 10 minutes prior to pilocarpine 320 mg/kg i.p., individual animals", "value": "17.88 and 15.17 and 19.95 and 15.18 and 16"}, {"measurement": "time of death occurrence", "setting": "pilocarpine model; Table 4, oral, 10 minutes prior to pilocarpine 320 mg/kg i.p., individual animals", "value": "18.92 min and 20 min and 15.18 min and 10.87 min"}, {"measurement": "inhibition at 1 µM", "setting": "human CB1 receptor; 1 µM, radioligand agonist CP55940, read-out: % of inhibition of binding of specific control, Mean value", "value": -74.6, "unit": "%"}, {"measurement": "inhibition at 10 µM", "setting": "human CB1 receptor; 10 µM, radioligand agonist CP55940, read-out: % of inhibition of binding of specific control, Mean value", "value": -9.9, "unit": "%"}, {"measurement": "% of inhibition of binding of specific control, 1st/2nd measurement", "setting": "human CB2 receptor; 1 (unit uncertain)", "value": "3.5% and 0.3%"}, {"measurement": "% of inhibition of binding of specific control, 1st/2nd measurement", "setting": "human CB2 receptor; 10 (unit uncertain)", "value": 13.1, "unit": "%"}, {"measurement": "modulation in binding of the radioligand (in words)", "setting": "human CB2 receptor; conditions tested", "value": "did not provide significant modulation"}, {"measurement": "area of the HPLC peak, control", "setting": "[1]", "value": 120}, {"measurement": "area of the HPLC peak after freezing", "setting": "[1]", "value": 100}, {"measurement": "part lost or degraded by freezing", "setting": "[1]", "value": 16.7, "unit": "%"}, {"measurement": "degradation upon heating (in words)", "setting": "[1]; [5]", "value": "did not suffer statistically significant degradation"}, {"measurement": "pain threshold, force", "setting": "pain threshold; After 3 h", "value": "80 grams (2×) and 70 grams (3×) and 75 grams"}, {"measurement": "pain threshold, force", "setting": "pain threshold; Immediate", "value": "70 grams and 75 grams (3×) and 80 grams and 60 grams"}, {"measurement": "greater pain threshold compared to PVNFKF", "setting": "pain threshold; after 3 h", "value": 50.1, "unit": "%"}, {"measurement": "% binding to the CB1 receptor in relation to control", "setting": "CB1 receptor", "value": "90.27% and 84.41% and 90.19% and 77.88% and 65.39%"}, {"measurement": "clinical symptoms (Clinical Score)", "setting": "[2]", "value": "impressive reduction of clinical symptoms"}]}, {"molecule": "CC(C)C[C@H](NC(=O)[C@H](Cc1ccccc1)NC(=O)[C@H](CCCCN)NC(=O)[C@H](Cc1ccccc1)NC(=O)[C@H](CC(N)=O)NC(=O)[C@@H](NC(=O)[C@@H]1CCCN1)C(C)C)C(=O)N[C@@H](CO)C(=O)N[C@@H](Cc1cnc[nH]1)C(=O)O", "note": "[Hp, hemopressin]", "values": [{"measurement": "area of the HPLC peak, control", "setting": "[1]", "value": 140}, {"measurement": "area of the HPLC peak after freezing", "setting": "[1]", "value": 97}, {"measurement": "part lost or degraded by freezing", "setting": "[1]", "value": "approximately 31%"}, {"measurement": "area of the HPLC peak after heating", "setting": "[1]; [5]", "value": 50}, {"measurement": "part lost or degraded upon heating", "setting": "[1]; [5]", "value": "approximately 64.3%"}, {"measurement": "% binding to the CB1 receptor in relation to control", "setting": "CB1 receptor", "value": "91.33% and 92.74% and 97.05% and 90.23% and 73.49%"}]}, {"molecule": "Cc1c(C(=O)c2cccc3ccccc23)c2cccc3c2n1[C@H](CN1CCOCC1)CO3", "note": "[WIN 55212-2]", "values": [{"measurement": "% binding to the CB1 receptor in relation to control", "setting": "CB1 receptor; listed as Win", "value": "111.483% and 117.95% and 125.56% and 127.52% and 122.49%"}]}, {"molecule": "RVDHp: N-extended version of hemopressin, RVD-Hp (pepcan 12) (RVDPVNFKLLSH; Hemoglobin subunit alpha; UniProt P69905 93-104, looked up, fragment)", "values": [{"measurement": "% binding to the CB1 receptor in relation to control", "setting": "CB1 receptor", "value": "103.39% and 111.53% and 110.87% and 114.76% and 105.22%"}]}, {"molecule": "CCCCCCC(C)(C)c1ccc([C@@H]2C[C@H](O)CC[C@H]2CCCO)c(O)c1", "note": "[CP 55940, reference compound]", "values": [{"measurement": "nH", "setting": "human CB1 receptor; reference radioligand agonist", "value": 1}]}, {"molecule": "B1", "values": [{"measurement": "binding result", "setting": "[3]", "value": "no binding (tested: 1 and 10 µM)"}]}]}
